Experimental findings from patent publication US20230140983A1, “PYRIDAZINE DERIVATIVES FOR MODULATING NUCLEIC ACID SPLICING” (REMIX THERAPEUTICS INC., priority 2020, published 2023) are described below.

pIC50: −log10 of the molar value. Like-named read-outs stand apart in the source and are kept apart here.

Usually pIC50 stands for the negative decadic logarithm of the IC50, by convention in mol/L. What is called AC50 is the midpoint of the concentration-response curve, whichever way the signal moves.

Common to all, as to format: cell-based
One assay concerns Target C. Kind of assay: Gene panel canonical junction qPCR assay, Target C CJ mRNA. As to conditions: Table 9, CJ mRNA decrease, read-out: Target C IC50 (decrease in CJ mRNA levels). On the procedure: (§1) To set up 10 uL RT-qPCR reactions, cell lysates were transferred to 384-well qPCR plates containing the master mix according to the table below. The plates were sealed, gently vortexed, and spun down before the run. The volumes were adjusted accordingly in some instances where the reaction was carried in 20 uL. The table below summarizes the components of the RT-qPCR reactions:
(§2) The RT-qPCR reaction was performed using a QuantStudio (ThermoFisher) under the following fast cycling conditions. All samples and standards were analyzed at least in duplicate. In some instances, bulk room temperature (RT) step of 5-10 minutes was completed for all plates before proceeding with qPCR. The table below summarizes the PCR cycle:
(§3) The data analysis was performed by first determining the ΔCt vs the housekeeper gene. This ΔCt was then normalized against the DMSO control (ΔΔCt) and converted to RQ (relative quantification) using the 2^(−ΔΔCt) equation. The RQ were then converted to a percentage response by arbitrarily setting an assay window of 3.5 ΔCt for HTT-CJ and an assay window of 9 ΔCt for HTT-AJ. […] The percentage response was then fitted to the 4 parametric logistic equation to evaluate the concentration dependence of compound treatment. The increase in AJ mRNA is reported as AC50 (compound concentration having 50% response in AJ increase) while the decrease in CJ mRNA levels is reported as IC50 (compound concentration having 50% response in CJ decrease).
(§4) Additional studies were carried out for a larger panel of genes using the protocol provided above. The junction between flanking upstream and downstream exons was used to design canonical junction qPCR assays. At least one of the forward primer, reverse primer or the CY5-labeled 5′ nuclease probe (with 3′ quencher such as ZEN/Iowa Black FQ) was designed to overlap with the exon junction to capture the CJ mRNA transcript. BLAST was used to confirm the specificity of the probeset and parameters such as melting temperature, GC content, amplicon size, and primer dimer formation are considered during their design. Data for the decrease in CJ mRNA levels for three exemplary genes (HTT, SMN2, and Target C) analyzed in this panel are reported as IC50 (compound concentration having 50% response in CJ decrease).

A further assay concerns SMN2. Kind of assay: Gene panel canonical junction qPCR assay, SMN2 CJ mRNA. As to conditions: Table 9, CJ mRNA decrease, read-out: SMN2 IC50 (decrease in CJ mRNA levels). On the procedure:
as §1, §2, §3, §4

For assay [1], the system named is HTT. As to the kind of experiment: Gene panel canonical junction qPCR assay, HTT CJ mRNA. As to conditions: Table 9, CJ mRNA decrease, read-out: HTT IC50 (decrease in CJ mRNA levels). The method, then: as §1, §2, §3, §4
(In qPCR the cycle at which signal appears reflects the starting amount.)

Assay [2] concerns HTT. Kind of assay: Splicing assay (RT-qPCR on cell lysates) monitoring HTT splice variants: AJ and CJ mRNA. As to conditions: concentration having 50% response. On the procedure:
Example 69: Exemplary Splicing Assay for Monitoring Expression Levels of Splice Variants
as §1, §2, §3

[3] abbreviates: Table 8, decrease in CJ mRNA, read-out: HTT CJ AC50.
[4] abbreviates: Table 8, increase in AJ mRNA, read-out: HTT AJ AC50.
[5] abbreviates: Table 7, decrease in CJ mRNA, read-out: HTT CJ AC50.
The mark [6] stands for this setting: Table 7, increase in AJ mRNA, read-out: HTT AJ AC50.

As for `CN(c1ccc(-c2ccc(-c3ccn(C)c(=O)c3)c3scnc23)nn1)C1CC(C)(C)NC(C)(C)C1` [Compound 174], the pIC50 in the assay with Target C was under 5.00; in the assay on SMN2, 6.00 to 7.00; in the assay with HTT [1], 5.00 to 6.00. Also, the AC50 with HTT [2] (setting [3]) and with HTT [2] (setting [4]) was 1 to 10 µM throughout.

On to `c1nc2c(-c3cn[nH]c3)ccc(-c3ccc(N[C@@H]4C[C@H]5CCC[C@@H](C4)N5)nn3)c2s1` [Compound 215], for which the pIC50 in the assay on Target C, with SMN2 and in the assay with HTT [1] was over 7.00 each time. Besides, the AC50 in the assay with HTT [2] (setting [3]) and in the assay with HTT [2] (setting [4]) was under 0.1 µM throughout.

Take `CN(c1ccc(-c2ccc(-c3cnn(C)c3)c3scnc23)nn1)C1CC(C)(C)NC(C)(C)C1` [Compound 175, N-methyl-6-[7-(1-methylpyrazol-4-yl)-1,3-benzothiazol-4-yl]-N-(2,2,6,6-tetramethylpiperidin-4-yl)pyridazin-3-amine]: the negative logarithm of the IC50 (pIC50) with Target C was under 5.00; with SMN2 it was 5.00 to 6.00; in the assay with HTT [1] it was under 5.00. The figures for the AC50 with HTT [2] (setting [3]) and in the assay on HTT [2] (setting [4]) were over 10 µM and 1 to 10 µM, respectively.

Regarding `COc1cc(-c2ccc(-c3ccc(N(C)C4CC(C)(C)NC(C)(C)C4)nn3)c3ncsc23)ccn1` [Compound 177], the pIC50 is under 5.00 in the assay on Target C, 5.00 to 6.00 in the assay with SMN2 and under 5.00 in the assay with HTT [1]. Moreover, the AC50 in the assay with HTT [2] (setting [3]) and with HTT [2] (setting [4]) was over 10 µM throughout.

For the compound `c1nc2c(-c3cn[nH]c3)ccc(-c3ccc(N4CCNCC4)nn3)c2s1` [Compound 185], the pIC50 with Target C was under 5.00; in the assay with SMN2 it was 6.00 to 7.00; in the assay with HTT [1], under 5.00. Further, the concentration at half-maximal activity (AC50) was over 5 µM with HTT [2] (setting [5]), over 5 µM in the assay with HTT [2] (setting [6]), over 10 µM with HTT [2] (setting [3]) and 1 to 10 µM in the assay with HTT [2] (setting [4]).

As to `c1nc2c(-c3cn[nH]c3)ccc(-c3ccc(N4CC5(CCCNC5)C4)nn3)c2s1` [Compound 187, 7-(6-{2,6-diazaspiro [3.5]nonan-2-yl}pyridazin-3-yl)-4-(1H-pyrazol-4-yl)-1,3-benzothiazole], the figures for the pIC50 in the assay with Target C, in the assay with SMN2 and with HTT [1] were under 5.00, 5.00 to 6.00 and under 5.00, respectively. For the same compound, the AC50 in the assay on HTT [2] (setting [5]) was over 5 µM; in the assay on HTT [2] (setting [6]) it was over 5 µM; in the assay with HTT [2] (setting [3]) it was over 10 µM; in the assay with HTT [2] (setting [4]) it was over 10 µM.

Regarding `CN(c1ccc(-c2ccc(-c3cnn(C)c(=O)c3)c3scnc23)nn1)C1CC(C)(C)NC(C)(C)C1` [Compound 211], the pIC50 in the assay with Target C, in the assay with SMN2 and in the assay on HTT [1] was 6.00 to 7.00 throughout.

In the case of `CC1(C)CC(Oc2ccc(-c3ccc(-c4cn[nH]c4)c4cn[nH]c34)nn2)CC(C)(C)N1` [Compound 138, 4-(1H-pyrazol-4-yl)-7-[6-[(2,2,6,6-tetramethylpiperidin-4-yl)oxy]pyridazin-3-yl]-1H-indazole], the AC50 in the assay on HTT [2] (setting [5]) was under 0.5 µM; with HTT [2] (setting [6]), 0.5 to 5 µM.

As to `C[C@H]1C[C@H](N(C)c2ccc(-c3ccc(-n4cccn4)c4cc[nH]c34)nn2)CCN1` [Compound 158], the AC50 with HTT [2] (setting [5]) and in the assay on HTT [2] (setting [6]) was over 5 µM in each case.

In the case of `c1n[nH]cc1-c1ccc(-c2ccc(N3C[C@H]4CNC[C@H]4C3)nn2)c2[nH]ncc12` [Compound 254], the concentration at half-maximal activity (AC50) in the assay with HTT [2] (setting [3]) and with HTT [2] (setting [4]) was over 10 µM throughout.

With `c1n[nH]cc1-c1ccc(-c2ccc(N3CCC4(CCCNC4)C3)nn2)c2[nH]ncc12` (stereo not drawn) [Compound 252], the AC50 in the assay with HTT [2] (setting [3]) and with HTT [2] (setting [4]) was over 10 µM each time.

As to `C[C@@H]1C[C@H](N(C)c2ccc(-c3ccc(-c4cn[nH]c4)c4nn[nH]c34)nn2)CCN1` [Compound 115], in the assay with HTT [2] (setting [6]), the AC50 is over 5 µM.

Turning to `CN(c1ccc(-c2ccc(-c3cn[nH]c3)c3ccsc23)nn1)C1CC(C)(C)NC(C)(C)C1` [Compound 131, N-methyl-6-[4-(1H-pyrazol-4-yl)-1-benzothiophen-7-yl]-N-(2,2,6,6-tetramethylpiperidin-4-yl)pyridazin-3-amine], the AC50 in the assay with HTT [2] (setting [5]) and in the assay with HTT [2] (setting [6]) was over 5 µM each time.
